Measured values as given in patent US20060222628A1, “Gallium complexes of 3-hydroxy-4-pyrones to treat infection by intracellular prokaryotes and DNA viruses” (priority 1999, published 2006).

Tests used:
Format in all cases: in vivo, human
CMV = test: Clinical evaluation for prevention of CMV disease in HIV patients: CMV
Text: In this example, prevention of CMV disease rather than its treatment will be studied. Chemo-prevention by antivirals is preferred, rather than with immune stimulating agents such as interferons, because interferons require regular administration by injection. Foscarnet is an antiviral only for injection, but it is studied for comparison with oral antivirals. […] In addition to the methods used in Example 5 for evaluating the HIV disease, some of the methods employed in the following reference are used in the evaluation: Monkemuller et al. (2000), “Esophageal ulcer caused by cytomegalovirus: resolution during combination antiretroviral therapy for acquired immunodeficiency syndrome,” South Med. J. 93(8):8 18-20. Patients are treated once per day with gelatin capsules containing gallium maltolate. The population of patients with CMV (almost universal, seropositive or culture positive patients) and HIV infection are first divided into two subpopulations groups based on CD4+ counts (above 350/mm^3 and below 350/mm^3). The subpopulations are randomly and blindly divided into two groups each randomly subdivided into subgroups for a total of sixteen approximately equal subgroups that receive either 0 (placebo), 250, 500, or 750 mg/day gallium maltolate for about six months. All subgroups receive the identical regimen of non-gallium antiretroviral therapy as described in Example 5 (a HAART regime). The commonly used nucleoside analog for CMV is ganciclovir, with foscavir used in cases where ganciclovir is ineffective, and the combination used to treat refractory CMV retinitis and other conditions. Foscarnet must be infused slowly to avoid adverse reactions. […] Patients are monitored for HIV disease precisely as described in Example 5. Patients are also medically monitored for CMV disease, including testing and examination for medical symptoms of CMV disease, such as CMV retinitis, throughout the study. […]

Herpes Simplex = test: Clinical evaluation for Herpes Simplex (I or II) infection and recurrences
Description: Patients with Herpes Simplex infection are treated once per day with gelatin capsules containing gallium maltolate. The population of patients is divided into subpopulation with recurrent Herpes Simplex and acute Herpes Simplex infections respectively. These different subpopulations are divided randomly and blindly into two approximately equal groups with four approximately equal subgroups that receive either 0 (placebo), 250, 500, or 750 mg/day gallium maltolate for about six months. The first group of each subpopulation receive the gallium maltolate dose together with 200 mg acyclovir five times per day. The second group of each subpopulation receive the gallium maltolate dose together with 500 mg ganciclovir twice per day. Patients are medically monitored for resolution recurrences of latent Herpes Simplex infection, or medical symptoms of acute Herpes Simplex infection throughout the study, with the monitoring including in situ hybridization of skin lesions for HSV DNA. In addition for the acute Herpes Simplex infected group, blood serum samples are obtained from the patients at days 0, 3, 7, and 10 and are assayed for HSV particle by routine methods and for Herpes Simplex DNA (viral load assay) using PCR.

HIV-1 = test: Clinical evaluation in co-infection by HIV and hepatitis B: HIV; conditions: hepatitis B co-infected patients; MacSynergy II
Description: Gallium maltolate is evaluated clinically for efficacy in treating hepatitis B co-infection of a HIV-1 patients. In addition to the methods used in Example 5 for evaluating the HIV disease, the methods employed in the clinical studies discussed in the following references are used in the evaluation: Yao et al. (1997), “Treatment of Chronic Hepatitis B: New Antiviral Therapies,” Curr. Gastroenterol. Rep. 1(1):20-26; Hoofnagle et al. (1997), “New therapies for chronic hepatitis B,” supra.
Patients are treated once per day with gelatin capsules containing gallium maltolate. The population of patients with hepatitis B and HIV infection are first divided into two subpopulations groups based on CD4+ counts (above 350/mm^3 and below 350/mm^3). […]
In each subpopulation, the first group's four subgroups from each subpopulation (above 350/mm^3 and below 350/mm^3) additionally receive the gallium maltolate dose together with 10 million IU interferon by injection once per day. […] Patients are monitored for HIV disease precisely as described in Example 5. Patients are also medically monitored for liver disease, including liver function testing and examination for medical symptoms of hepatitis B infection throughout the study, with careful attention to the possibility that the drugs themselves may cause some liver disease and elevate the liver function tests. […]

In the case of Cc1occc(=O)c1[O-].Cc1occc(=O)c1[O-].Cc1occc(=O)c1[O-].[Ga+3] [gallium maltolate, tris(3-hydroxy-2-methyl-4H-pyran-4-onato)gallium], the “Efficacy in preventing CMV disease in combination” value (CMV; HIV patients on HAART, with foscarnet or ganciclovir) is reported as “effective in combination with either foscarnet or ganciclovir”, the “Prevention of CMV disease with only oral agents” value (CMV; gallium plus ganciclovir versus placebo plus ganciclovir) is reported as “adequate and effecting better results than placebo plus ganciclovir” and the “Synergy in preventing CMV disease” value (CMV; with foscarnet or ganciclovir) is reported as “synergistic with both”. The “Efficacy in treating Herpes Simplex infection” value (Herpes Simplex; HIV negative patients, 250-750 mg/day oral with acyclovir or ganciclovir) was “effective for treating Herpes Simplex infection, including recurrent sores as well as more serious systemic disease”, the “Efficacy of combination with acyclovir or ganciclovir versus single agents” value (Herpes Simplex; Herpes Simplex) was “more effective than either agent alone” and the “Synergy with nucleoside analogs” value (Herpes Simplex; Herpes Simplex, MacSynergy II) was “synergy of gallium with both nucleoside analogs is also demonstrated”. For the same compound, the “Synergy with the HAART regime on HIV infection” value (HIV-1) was “synergistic with the HAART regime in their effects upon the HIV infection”.
